Data on 11 molecules can be found in patent publication US7129250B2, “Neuroprotective and anti-proliferative compounds” (Aegera Therapeutics Inc., priority 2000, dated 2006).

The subject of data set [1] is CGNs. Description: High/Low Potassium (HK/LK) assay in CGNs. Type of data set: cell-based. As to conditions: for IC50: Mus musculus, HK/LK switch, drug 24 h pre-treatment, assayed 16 h after media change, concentration at which cell death was inhibited by 50%. On the procedure: Cultured CGNs which are maintained in a medium containing 26 mM potassium (high K^+ or HK) undergo cell death when the medium is changed to one containing 5 mM potassium (low K^+ or LK). HK maintains the cells in a highly polarized state, duplicating that of fully innervated neurons. The switch to LK (5 mM is more representative of physiological conditions) results in depolarization of the cells, mimicking the loss of neuronal conductivity. […] As these killer genes are turned on by various types of neuronal insult as observed in AD, PD, and stroke, HK/LK is a general in vitro model for neuronal degradation, blanketing a wide range of neurodegenerative diseases. Compounds that protect against HK/LK in CGNs would therefore be efficacious in treatment and/or prevention of various neurodegenerative disease states.
CGNs were harvested from day 8/9 post-natal CD1 mice, plated on Poly-D-Lycine coated plates and incubated for 6 days at 37° C., with […] potassium, under 5% CO2. Pretreated cells were treated with drug 24 hours prior to changing the media to one containing […] potassium and drug. Cells were assayed 16 hours after the final media change using cell TITER96 (Promega).

For a further data set, the system named is Cortical neurons. In words: Cisplatin Killing of Cortical Neurons. Type of data set: cell-based, Sprague-Dawley rats. As to conditions: for % Protection at 10 μM: drug 10 μM 24 h pre-treatment. As for the experimental part: Cortical neurons were harvested from day E18 female Sprague-Dawley rats, plated on Poly-L-Lycine coated plates and incubated for 14 days at 37° C. under 5% CO2. […]

Data set [2] relates to CGNs. Description: Glutamate Killing of CGNs. Type of data set: cell-based, CD1 mice. As to conditions: glutamate 100 uM. An excerpt: Glutaminergic neurons secrete the neurotransmitter glutamate as a part of normal cell signaling processes. Intracellular glutamate levels are regulated by glial cell uptake and conversion to glutamine. Under conditions of oxidative stress, as observed in various neurodegenerative diseases such as stroke, ALS, PD, and HD, glutaminergic neurons release massive amounts of glutamate into the […] fluid, overwhelming the surrounding cells. Stimulation of both NMDA and non NMDA-type glutamate excitory receptors leads to sustained depolarization of postsynaptic dendrosomal membranes, increased membrane permeability, and impaired ion homeostasis, all leading to either apoptotic or necrotic cell death.
CGNs were harvested from day 8/9 post-natal CD1 mice, plated on Poly-D-Lycine coated plates and incubated for 6 days at 37° C. under 5% CO2. Cells were pretreated with drug 24 hours prior to glutamate (100 uM) and drug addition.

The test system of data set [3] is CGNs. Description: β-Amyloid Aggregation Assay in CGNs. Type of data set: cell-based. As to conditions: for IC50: Aβ 25 μM, assayed 5 days after Aβ addition. An excerpt:
Various mechanisms have been put forward in order to account for the neurotoxicity related to extracellular Aβ fibril formation. […] Regardless of the mode of action, extracellular Aβ fibril formation acts as an effective apoptotic trigger for neuronal cells and serves as an in vitro model for various neurodegenerative diseases characterized by extracellular protein fibril formation, typified by diseases such as AD and PD.
CGNs were harvested from day 8/9 post-natal CD1 mice, plated on Poly-D-Lycine coated plates and incubated for 6 days at 37° C. under 5% CO2. Pretreated cells were treated with drug 24 hours prior to A-β (25 μM) and drug addition.

A further data set concerns SHSY-5Y cells. Description: Etoposide Killing of SHSY-5Y. Type of data set: cell-based. As to conditions: etoposide 32 uM, drug 1 μM. As for the experimental part:
SHSY-5Y cells were grown in growth media. Cells are placed at 50,000 cells per 96 well. Four days latter the cells were treated with drug for 48 hours prior to etoposide (32 uM) treatment. On day 6 media was changed to that containing etoposide and drug for 4 hours, at which point the media was changed to media containing drug only. Cells are allowed to survive overnight and then assessed for viability with metabolic activity measured (WST-1-Beohringer Mannheime), as shown in TABLE 13.

For data set [4], the system named is CGNs. In words: Ceramide Killing of CGNs. Type of data set: cell-based, CD1 mice. As to conditions: ceramide 100 uM. The source says: Ceramide is a native […] found in most mammalian and human cells. The upregulation of endogenous ceramide has been linked to caspase 1 (ICE) induced apoptosis (Suzuki, A. et al. Exp. Cel. Res., 1997, 233, 41). In a similar fashion, the addition of ceramide to cultured CGNs results in caspase induced apoptosis, and is therefore considered an effective in vitro model for the various neurodegenerative diseases described above, which are characterized by caspase induced apoptosis, as observed in stroke models. Addition of selected compounds of the formula I through III, 24 hours prior to the addition of ceramide, to cultured CGNs provided protection against apoptosis, with 10 to 20% of the cells being saved at 1–10 μM drug concentrations (see Example 114).
CGNs were harvested from day 8/9 post-natal CD1 mice, plated on Poly-D-Lycine coated plates and incubated for 6 days at 37° C. under 5% CO2. Cells were pretreated with drug 24 hours prior to ceramide (100 uM) and drug addition.

The test system of data set [5] is CGNs. Description: Cisplatin Killing of CGNs. Type of data set: cell-based, CD1 mice. As to conditions: for survival: 300 nM drug, cisplatin. As for the experimental part:
Cisplatin has been used extensively in the treatment of various cancers. One dosblimiting side effect of this chemotherapeutic agent is related to hearing loss as a result of its toxicity to auditory neurons and loss of feeling in the extremities. Cisplatin induces apoptosis to both cultured CGN and cortical neurons.
CGNs were harvested from day 8/9 post-natal CD1 mice, plated on Poly-D-Lycine coated plates and incubated for 6 days at 37° C. under 5% CO2. The cells were treated with media containing drug and cisplatin […].

Data set [6] deals with OV 2008 ovarian cancer cells. Description: Cisplatin induced apoptosis of OV 2008 ovarian cancer cells. As to conditions: cisplatin (20 μg/mL). Type of data set: cell-based. The source says:
Regardless of its neuroprotective capability, if a compound interferes with chemotherapy by protecting cancer cells from an apoptotic stimuli then the compound is of less value as an anti-cancer therapeutic.

The test system of the next data set is Caspase 3. Description: Caspase 3 induction during HK/LK killing of CGNs. Type of data set: cell-based, CD1 mice. An excerpt: Caspase 3 induction ultimately leads to cell death and is observed in any number of neurodegenerative diseases. Compounds which inhibit caspase 3 induction represent potent therapies for various neurodegenerative diseases.
Another data set concerns SCG neurons. In words: NGF Withdrawal Killing of SCG Neurons. As to conditions: Rattus norvegicus, Neuron, assayed 48 hours after drug. Type of data set: cell-based, Sprague-Dawley rats. The source says:
Cultured Superiour Cervical Ganglion (SCG) neurons of the PNS which have been sustained in media containing Neuron Growth Factor (NGF) undergo apoptotic cell death upon removal of the NGF from the cellular medium. Loss of neuronal trofin support has been implicated in various neurodegenerative disease states in the PNS, such as diabetic neuropathy and neuropahies related to chemotherapeutic and anti-HIV drug treatment.
SCG neurons were harvested from day 1 post natal Sprague-Dawley rats, plated on collagen coated plates and incubated for 5 days in the presence of 50 ng/mL NGF at 37° C. under 5% CO2. The cells were washed with NGF free media, 4 times at 1 hour intervals, at which time drug was added.

The subject of another data set is HIAP1 mRNA in LAN5 cells. Description: LAN5 HAIP1 Down Regulators (RNA levels). As to conditions: HIAP1 RNA level vs control = 1.0; 24 hours drug. Type of data set: cell-based. As for the experimental part:
LAN5 cells were grown in growth media. Cells were plated at cells 50,000 per well in 96 cells per 96 wells. Five days latter drug was added and the cells were liced 24 hours latter using RLT buffer.

Data set [7] concerns rat spinal cord ex-plants. Description: Spinal Cord Explant neurite extension. Type of data set: cell-based. As to conditions: 3 μM; ex-plants on growth inhibitory substrates. An excerpt:
The inability of neurites to regenerate or overcome stimuli which inhibit or prevent the formation of normal neuritic extensions and connections is characteristic of the conditions found in spinal cord and related injuries, AD and the like. Select compounds of this invention promote the formation of neuritic extension in spinal cord ex-plants which have been cultured on growth inhibitory substrates.
Spinal cords from P1 rat pups were isolated for neurite extension analysis. Lumbar cord was separated in two along the spinal canal. […] lateral sections were obtained with a McIlwain tissue chopper. Slices were cultured in poly L-lysine coated 24 well plates in Neurobasal media supplemented with B27, penicillin, streptomycin, and glutamate. Test compounds were added to the media and neurite extension out of the explant onto the poly L-coated plastic was assessed after 7 days in culture. Neurites were visualized either by phase contrast microscopy or by beta 3 tubulin immunofluorescence.

The mark [8] stands for this setting: Mus musculus, assayed 48 hours after final drug treatment.
[9] abbreviates: cisplatin induced apoptosis in CGNs.
[10] abbreviates: assayed 48 hours after final drug treatment.

Each structure is given as a SMILES string. Several values for one entry are separate records, joined by “and”; a condition that tells them apart may be missing. Identical values can stand only once.

Usually IC50 stands for the point on the concentration scale where inhibition reaches its midpoint. What is called inhibition is the share of the control response that was lost under treatment. A high value points to a strong effect.

For `CCSCc1ccc2c(c1)c1c3c(c4c5cc(CSCC)ccc5n5c4c1n2[C@H]1C[C@](O)(C(=O)OC)[C@]5(C)O1)CNC3=O` [CEP 1347, reference compound], in the data set on CGNs [1], the IC50 was determined as 1000 nM. Further, in the data set on CGNs [1] (higher doses), the toxicity result is given as “toxic at higher doses”. The “% Protection” value in the data set with Cortical neurons (drug at 0.3 μM, cisplatin) was 32%. Also, the “% CGN Survival” value is given as 50.0 (250 nM) % in the data set on CGNs [2] (300 nM, (250 nM in source)); 0% with CGNs [2] (drug 100 nM); 7.0% in the data set on CGNs [2] (drug 1 μM); 0 (250 nM) % in the data set on CGNs [4] (300 nM, (250 nM in source)); 1.8% in the data set on CGNs [4] (drug 1 μM). In addition, the protection in the data set on CGNs [3] (concentrations below 300 nM) was greater than 10%. Moreover, the “% SHSY-5Y cell survival” value with SHSY-5Y cells turned out to be 12.5%.
Consider `O=C1NC(=O)C2=C1c1c([nH]c3ccccc13)C1Cc3ccccc3N21` (stereo not shown) [Compound 24], for which the IC50 with CGNs [1] came out at 10000 nM; in the data set with CGNs [5] (setting [8]), 3000 nM; with CGNs [3] (Mus musculus, 120 h) it was 10000 nM. The “% CGN Survival” value with CGNs [2] (drug 100 nM) is reported as 0%; in the data set with CGNs [2] (drug 1 μM), 17.0%; in the data set with CGNs [2] (drug 10 μM), 22.3%; in the data set with CGNs [4] (drug 1 μM), 11.4%; with CGNs [4] (drug 10 μM), 10.7%.
With `O=C1NC(=O)C2=C1c1c([nH]c3ccc(OCc4ccccc4)cc13)C1Cc3ccccc3N21` (stereo not shown) [Compound 35], the survival with CGNs [5] is listed as 80%. Further, the IC50 in the data set with CGNs [5] (setting [9]) was found to be 100 nM. In the data set on Cortical neurons, the “% Protection at 10 μM” value was 10% and 11%.
Take `O=C1NC(=O)C2=C1c1c(n(CCO)c3ccc(OCc4ccccc4)cc13)C1Cc3ccccc3N21` (stereo not shown) [Compound 36]: the survival in the data set on CGNs [5] amounted to 80%. The molecule also showed an IC50 with CGNs [5] (setting [9]) of 100 nM. Moreover, in the data set with Cortical neurons, the “% Protection at 10 μM” value was found to be 9%. Moreover, in [6], the “protection of cancer cells from cisplatin induced apoptosis” value is on record as “did not protect”.
With `O=C1NC(=O)c2c1c1c3ccccc3[nH]c1c1cc3ccccc3n21` [Compound 42], the IC50 in the data set on CGNs [1] is 3000 nM; in the data set with CGNs [5] (setting [8]), 3000 nM; in the data set with SCG neurons, 20000 nM; in the data set with CGNs [3] (Mus musculus, 120 h) it was 1000 nM. The inhibition at 10 µM with Caspase 3 (Mus musculus) amounted to 50%. Moreover, the entries for the “% CGN Survival” value with CGNs [4] (drug 1 μM) and in the data set on CGNs [4] (drug 10 μM) were 20.0% and 18.0%, respectively.
In the case of `COc1ccc2c(c1)c1c3c(n4c5ccccc5cc4c1n2C(=O)COC(C)=O)C(=O)NC3=O` [Compound 51], the IC50 with CGNs [5] (setting [8]) came to 1000 nM. Also, in the data set on Cortical neurons, the “% Protection at 10 μM” value was 20% and 23%.
For `O=C1NC(=O)c2c1c1c3cc(OCc4ccccc4)ccc3[nH]c1c1cc3ccccc3n21` [Compound 52], the midpoint of inhibition in the data set with CGNs [5] (setting [10]), the IC50, lay at 3000 nM. Besides, the “% Protection at 10 μM” value in the data set on Cortical neurons was 50% and 40%.
`O=C1NC(=O)c2c1c1c3ccccc3[nH]c1c1nc3ccccc3n21` [Compound 53]: in the data set with Cortical neurons, the “% Protection at 10 μM” value came out at 41%.
On to `O=C1C=C(c2c[nH]c3ccc(OCc4ccccc4)cc23)C(=O)N1` [Compound 64, 3-(1-H-5-benzyloxyindol-3-yl)-1H-pyrrole-2,5-dione], for which the figures for the IC50 with CGNs [5] (setting [10]) and in the data set on CGNs [3] were 3000 nM and 1000 nM, respectively. Besides, in the data set with Caspase 3 (10 μM), the “inhibition of caspase 3 induction” value is 33%. For the same molecule, the “% CGN Survival” value with CGNs [2] (drug 100 nM) came out at 0%; in the data set with CGNs [2] (drug 1 μM) it was 4.0%; in the data set with CGNs [2] (drug 10 μM), 32.5%; in the data set with CGNs [4] (drug 1 μM), 18.0%; in the data set with CGNs [4] (drug 10 μM), 5.1%.
As for `COc1ccc2c(c1)c(C1=CC(=O)NC1=O)cn2S(=O)(=O)c1ccc(C)cc1` [Compound 87, 3-(N-tosyl-5-methoxyindol-3-yl)-1H-pyrrole-2,5-dione], the “% CGN Survival” value is 0% in the data set on CGNs [2] (drug 100 nM), 11.5% in the data set with CGNs [2] (drug 1 μM), 0% with CGNs [4] (drug 1 μM) and 9.1% in the data set with CGNs [4] (drug 10 μM). 10000 nM corresponded to half-maximal inhibition in the data set on CGNs [3] (Mus musculus, 120 h) (IC50). Besides, in the data set on HIAP1 mRNA in LAN5 cells, the “Fold Induction” value is 0.37.
In the case of `O=C1NCC2=C1N1c3ccccc3CC1c1c2c2ccccc2n1CCCO` (stereo not shown) [Compound 176], the “formation of neuritic extensions” value in data set [7] is on record as “induce the formation of neuritic extensions”.
